Key:
Type in all cases: cell-based
[1] = system: panel of Gram positive and Gram negative bacteria; test: in vitro screens against a panel of Gram positive and Gram negative bacteria
Experimental: (§1) All examples were tested against a panel of Gram positive and Gram negative bacteria. […] Typical MIC ranges […] are: S. aureus (MRSA) 0.06-2 (linezolid 1-2, ciprofloxacin 0.5-32) S. aureus (MSSA) 0.06-2 (linezolid 1-2, ciprofloxacin 0.125-1) E. faecalis 0.02-1 (linezolid 0.5-2, ciprofloxacin 0.5-32) E. faecium 0.02-1 (linezolid 1-2, ciprofloxacin 0.25-32) S. pneumoniae 0.02-1 (linezolid 0.125-1, ciprofloxacin 1-4) However, cleavage of saccharide modified compounds such as compounds from example 1 and 2 by esterases and glucosidases that occur in human plasma yields the corresponding antibiotically active compounds.

E. faecium = test: MIC against panel of bacteria: E. faecium
Experimental: as §1

S. pneumoniae = test: MIC against panel of bacteria: S. pneumoniae
Experimental: as §1

S. aureus (MSSA) = test: MIC against panel of bacteria: S. aureus (MSSA)
Experimental: as §1

E. faecalis = test: MIC against panel of bacteria: E. faecalis
Experimental: as §1

S. aureus (MRSA) = test: MIC against panel of bacteria: S. aureus (MRSA)
Experimental: as §1

SMILES	activity in the in vitro screens [1]	Typical MIC ranges (E. faecium)	Typical MIC ranges (S. pneumoniae)	Typical MIC ranges (S. aureus (MSSA))	Typical MIC ranges (E. faecalis)	Typical MIC ranges (S. aureus (MRSA))
CC(=O)NC[C@H]1CN(c2ccc(OCC3(OC(=O)[C@H]4O[C@@H](O)[C@H](O)[C@@H](O)[C@@H]4O)CCN(c4c(F)cn5c(=O)c(C(=O)O)cc(C6CC6)c5c4C)CC3)c(F)c2)C(=O)O1 [Example 1, 8-[4-{4-[(S)-5-(Acetylamino-methyl)-2-oxo-oxazolidin-3-yl]-2-fluoro-phenoxymethyl}-4-((2S,3S,4S,5R,6R)-3,4,5,6-tetrahydroxy-tetrahydro-pyran-2-carbonyloxy)-piperidin-1-yl]-1-cyclopropyl-7-fluoro-9-methyl-4-oxo-4H-quinolizine-3-carboxylic acid]	inactive	–	–	–	–	–
CC(=O)NC[C@H]1CN(c2ccc(OCC3(OC(=O)[C@H](O)[C@@H](O)[C@H](O)[C@H](O)CO)CCN(c4c(F)cn5c(=O)c(C(=O)O)cc(C6CC6)c5c4C)CC3)c(F)c2)C(=O)O1 [Example 2, 8-[4-{4-[(S)-5-(Acetylamino-methyl)-2-oxo-oxazolidin-3-yl]-2-fluoro-phenoxymethyl}-4-((2R,3S,4R,5R)-2,3,4,5,6-pentahydroxy-hexanoyloxy)-piperidin-1-yl]-1-cyclopropyl-7-fluoro-9-methyl-4-oxo-4H-quinolizine-3-carboxylic acid]	inactive	–	–	–	–	–
O=C(O)c1cn(C2CC2)c2cc(N3CCNCC3)c(F)cc2c1=O [ciprofloxacin]	–	0.25 to 32 µg/mL	1 to 4 µg/mL	0.125 to 1 µg/mL	0.5 to 32 µg/mL	0.5 to 32 µg/mL
CC(=O)NC[C@H]1CN(c2ccc(N3CCOCC3)c(F)c2)C(=O)O1 [linezolid]	–	–	125 to 1000 µg/mL	–	0.5 to 2 µg/mL	1 to 2 µg/mL

From patent US20100137230A1, “NEW PYRIDIN-2-ONE COMPOUNDS” (priority 2007, published 2010)
